Source: the NIST ThermoML archive (doi:10.1021/je400830w)

Columns and labels:
[1] = 100 kPa, Liquid; for viscosity: Falling or rolling sphere viscometry; for mass density: Vibrating tube method
[2] = refractive index (Na D-line) (dimensionless); details: 100 kPa, Liquid, Standard Abbe refractometry

NCCO [2-aminoethan-1-ol]
Details	mass density, [1] [kg/m3]	refractive index, [2]	viscosity, [1] [mPa·s]
298.15 K	1012.38	1.45406	18.89
303.15 K	1009.35	1.45241	15.11
313.15 K	1002.16	1.449	10.03
323.15 K	994.4	1.44522	6.983
333.15 K	986.24	1.44198	4.972
